What was measured:
Settings in all cases: synthetic library passage 3, intravenous, relative to wild-type AAV9
[1] = test system: brain, spinal cord, and DRG of the NHPs; experiment: NGS fold enrichment of synthetic library (passage 3) in NHPs, first cross-species screen; assay type: in vivo, cynomolgus macaques (Macaca fascicularis)
Outline: (§1)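 Fold enrichment versus wild-type AAV9 was derived by NGS of RT-PCR-amplified RNA from nervous tissue, collected e.g. 28 days after IV dosing […]. The library (passage 3) was given to two NHPs aged 2-4 years and to 6-8-week BALB/c and C57Bl/6 mice (n=3 each).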

brain [2] = experiment: NGS fold enrichment of synthetic library (passage 3) in BALB/c mice, first cross-species screen; assay type: in vivo
Outline: as §1

brain [3] = experiment: NGS fold enrichment of synthetic library (passage 3) in C57Bl/6 mice, first cross-species screen; assay type: in vivo
Outline: as §1

[4] = RNA from spinal cord of NHPs, NGS
[5] = RNA from brain of BALB/c mice, NGS
[6] = RNA from brain of C57Bl/6 mice, NGS

| Sequence | Fold enrichment over AAV9 in the brain of NHPs ([1]; RNA NGS, brain of NHPs) | Fold enrichment over AAV9 in the spinal cord of NHPs ([1]; RNA NGS, spinal cord of NHPs) | Fold enrichment over AAV9 in the brain of Mice (BALB/c) (brain [2]; RNA NGS, brain of BALB/c mice) | Fold enrichment over AAV9 in the brain of Mice (C57Bl/6) (brain [3]; RNA NGS, brain of C57Bl/6 mice) | Fold enrichment over AAV9 in the brain of NHPs ([1]; RNA from brain of NHPs, NGS) | Fold enrichment over AAV9 in the spinal cord of NHPs [1, 4] | Fold enrichment over AAV9 in the brain of Mice (BALB/c) (brain [2]; [5]) | Fold enrichment over AAV9 in the brain of Mice (C57Bl/6) (brain [3]; [6]) |
| --- | --- | --- | --- | --- | --- | --- | --- | --- |
| GSVGSRPVGQNQQT | 1.442 fold | 11.363 fold | 0.716 fold | 1.182 fold | – | – | – | – |
| GIMARDSSGQNQQT | 1.972 fold | 3.486 fold | 0.904 fold | 1.320 fold | – | – | – | – |
| GMDHSRPSGQNQQT | 1.627 fold | 3.976 fold | 0.648 fold | 0.918 fold | – | – | – | – |
| GSGQNQQTPLRPPT | 1.624 fold | 0.352 fold | 0.472 fold | 0.874 fold | – | – | – | – |
| GSAQVSMVGQNQQT | 1.601 fold | 1.332 fold | 0.285 fold | 0.500 fold | – | – | – | – |
| GSGMPQSHIQNQQT | 3.289 fold | 11.609 fold | 0.334 fold | 0.514 fold | – | – | – | – |
| GSGQSHSLETNQQT | – | – | – | – | 1.188 fold | 1.319 fold | 0.363 fold | 0.520 fold |
| GTDFGRQSSQNQQT | 2.346 fold | 3.196 fold | 0.797 fold | 1.021 fold | – | – | – | – |
| GSGSHHASRQNQQT | 1.712 fold | 0.451 fold | 0.584 fold | 3.073 fold | – | – | – | – |
| GSGQNQQTSVYMNT | 1.498 fold | 0.613 fold | 0.983 fold | 0.640 fold | – | – | – | – |
| GHAGSTGSGQNQQT | – | – | – | – | 1.352 fold | 2.829 fold | 1.233 fold | 1.332 fold |
| GSGQNLGLLGAQQT | – | – | – | – | 1.161 fold | 1.458 fold | 0.226 fold | 0.524 fold |
| GVVAAHNSGQNQQT | 2.202 fold | 1.301 fold | 1.336 fold | 1.196 fold | – | – | – | – |
| GWERSFVSGQNQQT | 1.492 fold | 0.943 fold | 0.538 fold | 0.490 fold | – | – | – | – |
| GSLLTTASGQNQQT | 1.822 fold | 0.780 fold | 0.635 fold | 0.938 fold | – | – | – | – |
| GSGLLPLSSQNQQT | 2.612 fold | 1.130 fold | 0.293 fold | 0.501 fold | – | – | – | – |

Reference: US20260250318A1, “COMPOSITIONS AND METHODS FOR CROSSING THE BLOOD BRAIN BARRIER” (VOYAGER THERAPEUTICS, INC., priority 2022, published 2026)
